From patent publication US20250051347A1, “BIFUNCTIONAL CHIMERIC HETEROCYCLIC COMPOUND AND USE THEREOF AS ANDROGEN RECEPTOR DEGRADER” (Hinova Pharmaceuticals, Inc., priority 2021, published 2025) come the findings set out here.

One assay addresses T1, androgen receptor (AR) splicing variant AR-v7 (Homo sapiens, UniProt P10275).
T1 construct: The degradation activity of compounds on AR-v7 in 22RV1 cells; host or cells: 22RV1 cells
T1 sequence (P10275 1-644 isoform P10275-3): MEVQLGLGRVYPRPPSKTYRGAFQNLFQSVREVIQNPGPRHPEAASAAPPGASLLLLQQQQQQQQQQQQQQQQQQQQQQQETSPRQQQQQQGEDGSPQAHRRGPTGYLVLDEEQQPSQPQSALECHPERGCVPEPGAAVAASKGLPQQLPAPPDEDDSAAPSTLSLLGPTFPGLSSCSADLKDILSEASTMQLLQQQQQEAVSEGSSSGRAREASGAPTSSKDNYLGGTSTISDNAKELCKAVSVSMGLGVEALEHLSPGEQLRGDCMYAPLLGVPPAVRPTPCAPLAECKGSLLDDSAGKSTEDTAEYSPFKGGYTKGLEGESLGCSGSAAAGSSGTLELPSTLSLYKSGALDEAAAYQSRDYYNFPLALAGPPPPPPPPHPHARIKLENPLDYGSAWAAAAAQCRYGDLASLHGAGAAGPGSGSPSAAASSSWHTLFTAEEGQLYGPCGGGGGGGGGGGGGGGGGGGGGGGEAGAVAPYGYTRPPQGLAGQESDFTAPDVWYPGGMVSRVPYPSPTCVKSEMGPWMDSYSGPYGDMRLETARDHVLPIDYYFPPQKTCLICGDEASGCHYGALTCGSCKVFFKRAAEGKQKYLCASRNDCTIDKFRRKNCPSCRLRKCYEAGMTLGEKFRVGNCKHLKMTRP
Description: Degradation activity on androgen receptor splicing variant AR-v7 in 22RV1 cells (ELISA). Particulars: AR-v7 degradation in 22RV1 cells, 48 h, class symbols. The assay is classed as cell-based.
`CC(C)(c1ccc(OCc2ccnc(OC3CCOCC3)n2)cc1)c1ccc(O[C@H]2C[C@H](Nc3ccc4c(c3)C(=O)N(C3CCC(=O)NC3=O)C4=O)C2)cc1` (stereo partly drawn) [Example 368, 2-(2,6-dioxopiperidin-3-yl)-5-(((1r,3r)-3-(4-(2-(4-((2-((tetrahydro-2H-pyran-4-yl)oxy)pyrimidin-4-yl)methoxy)phenyl)isopropan-2-yl)phenoxy)cyclobutyl)amino)isoindolin-1,3-dione] registered a DC50 of 11 to 100 nM.
The molecule `CC(C)(c1ccc(OCCCNc2ccc3c(c2)C(=O)N(C2CCC(=O)NC2=O)C3=O)cc1)c1ccc(OCc2nc3ncccc3o2)cc1` (stereo not drawn) [Example 442, 2-(2,6-dioxopiperidin-3-yl)-5-((3-(4-(2-(4-(oxazolo[4,5-b]pyridin-2-ylmethoxy)phenyl)propan-2-yl)phenoxy)propyl)amino)isoindolin-1,3-dione] showed a DC50 of 11 to 100 nM.
With `Cc1nc(-c2ccc(Oc3ccc(C(C)(C)c4ccc(O[C@H]5C[C@@H](Nc6ccc7c(c6)C(=O)N(C6CCC(=O)NC6=O)C7=O)C5)cc4)cc3)nc2)no1` (stereo partly drawn) [Example 213], the DC50 fell in the range of 11 to 100 nM.
`CC(C)(c1ccc(OCc2ccnc(N3CCC4(CC3)COC4)n2)cc1)c1ccc(OC2CC(Nc3ccc4c(c3)C(=O)N(C3CCC(=O)NC3=O)C4=O)C2)cc1` (stereo not drawn) [Example 78, 5-((3-(4-(2-(4-((2-(2-oxa-7-azaspiro[3.5]nonan-7-yl)pyrimidin-4-yl)methoxy)phenyl)propan-2-yl)phenoxy)cyclobutyl)amino)-2-(2,6-dioxopiperidin-3-yl)isoindolin-1,3-dione] had a DC50 of 11 to 100 nM.
`CC(C)(c1ccc(OCc2ccnc(N3CC4(COC4)C3)n2)cc1)c1ccc(OC2CCCCC2Nc2ccc3c(c2)C(=O)N(C2CCC(=O)NC2=O)C3=O)cc1` (stereo not drawn) [Example 569, 5-((2-(4-(2-(4-((2-(2-oxa-6-azaspiro[3.3]heptan-6-yl)pyrimidin-4-yl)methoxy)phenyl)propan-2-yl)phenoxy)cyclohexyl)amino)-2-(2,6-dioxopiperidin-3-yl)isoindolin-1,3-dione] showed a DC50 of 1000 to 5000 nM.
`CCNC(=O)c1nccc(COc2ccc(C(C)(C)c3ccc(OC4CC(Nc5ccc6c(c5)C(=O)N(C5CCC(=O)NC5=O)C6=O)C4)cc3)cc2)n1` (stereo not drawn) [Example 531]: the DC50 was in the range of 11 to 100 nM.
As for `CC(C)(c1ccc(Oc2ncc(F)c(N3CC4(COC4)C3)n2)cc1)c1ccc(O[C@H]2C[C@@H](Nc3ccc4c(c3)C(=O)N(C3CCC(=O)NC3=O)C4=O)C2)cc1` (stereo partly drawn) [Example 157], the DC50 is 11 to 100 nM.
In the case of `CC(C)(c1ccc(Oc2cnc(-n3nccn3)c(Cl)c2)cc1)c1ccc(O[C@H]2C[C@H](Nc3ccc4c(c3)C(=O)N(C3CCC(=O)NC3=O)C4=O)C2)cc1` (stereo partly drawn) [Example 515], the DC50 lay in the range of 11 to 100 nM.
Consider `CC(C)(c1ccc(Oc2ncnc(N3CC(N4CCC4)C3)c2F)cc1)c1ccc(O[C@H]2C[C@@H](Nc3ccc4c(c3)C(=O)N(C3CCC(=O)NC3=O)C4=O)C2)cc1` (stereo partly drawn) [Example 575], for which the DC50 lay within 11 to 100 nM.
Same read-out and setting: next, `CC(C)(c1ccc(Oc2ccc(N3CC4(COC4)C3)nc2)cc1)c1ccc(O[C@H]2C[C@H](Nc3ccc4c(c3)C(=O)N(C3CCC(=O)NC3=O)C4=O)C2)cc1` (stereo partly drawn) [Example 214]: 11 to 100 nM.
In turn, `Cc1nc(COc2ccc(C(C)(C)c3ccc(OCCCNc4cccc5c4C(=O)N(C4CCC(=O)NC4=O)C5=O)cc3)cc2)cs1` (stereo not drawn) [Example 224, 2-(2,6-dioxopiperidin-3-yl)-4-((3-(4-(2-(4-((2-methylthiazol-4-yl)methoxy)phenyl)propan-2-yl)phenoxy)propyl)amino)isoindolin-1,3-dione] had a 50% degradation concentration (DC50) of 101 to 1000 nM.
The molecule `CN1CCC(Oc2nccc(COc3ccc(C(C)(C)c4ccc(O[C@H]5C[C@@H](Nc6ccc7c(c6)C(=O)N(C6CCC(=O)NC6=O)C7=O)C5)cc4)cc3)n2)CC1` (stereo partly drawn) [Example 234] returned a DC50 of 11 to 100 nM.
In the case of `CC(C)(c1ccc(Oc2ccc(N3CC(N4CC(F)(F)C4)C3)nn2)cc1)c1ccc(O[C@H]2C[C@H](Nc3ccc4c(c3)C(=O)N(C3CCC(=O)NC3=O)C4=O)C2)cc1` (stereo partly drawn) [Example 424], the 50% degradation concentration (DC50) was 11 to 100 nM.
In the case of `CC(C)(c1ccc(OCc2ccnc(NS(C)(=O)=O)n2)cc1)c1ccc(OC2CCN(CC3CCN(CC4CCN(CC5CN(c6ccc7c(c6)C(=O)N(C6CCC(=O)NC6=O)C7=O)C5)CC4)CC3)CC2)cc1` (stereo not drawn) [Example 12], the DC50 was in the range of 1000 to 5000 nM.
In turn, `CN1CCN(c2ncc(COc3ccc(C(C)(C)c4ccc(OC5CC(Nc6ccc7c(c6)C(=O)N(C6CCC(=O)NC6=O)C7=O)C5)cc4)cc3)cn2)CC1` (stereo not drawn) [Example 534] came in with a DC50 of 11 to 100 nM.
`CC(C)(c1ccc(OCC#Cc2ccc3c(c2)C(=O)N(C2CCC(=O)NC2=O)C3=O)cc1)c1ccc(OCc2ccnc(N3CC4(COC4)C3)n2)cc1` (stereo not drawn) [Example 310]: the DC50 was 101 to 1000 nM.
Molecule `Cc1nc(-c2ncc(Oc3ccc(C(C)(C)c4ccc(N5CCC56CN(c5ccc7c(c5)C(=O)N(C5CCC(=O)NC5=O)C7=O)C6)cc4)cc3)cn2)no1` (stereo not drawn) [Example 179, 2-(2,6-dioxopiperidin-3-yl)-5-(1-(4-(2-(4-((2-(5-methyl-1,2,4-oxadiazol-3-yl)pyrimidin-5-yl)oxy)phenyl)propan-2-yl)phenyl)-1,6-diazaspiro[3.3]heptan-6-yl)isoindolin-1,3-dione] had a DC50 of 101 to 1000 nM.
Still for that read-out and setting: next, `CC(C)(c1ccc(OCCCNc2ccc3c(c2)C(=O)N(C2CCC(=O)NC2=O)C3=O)cc1)c1ccc(OCc2nc(C(=O)N3CCCC3)no2)cc1` (stereo not drawn) [Example 140, 2-(2,6-dioxopiperidin-3-yl)-5-((3-(4-(2-(4-((3-(pyrrolidin-1-carbonyl)-1,2,4-oxadiazol-5-yl)methoxy)phenyl)propan-2-yl)phenoxy)propyl)amino)isoindolin-1,3-dione]: 101 to 1000 nM; `CN[C@@H]1CCCN(c2nccc(COc3ccc(C(C)(C)c4ccc(O[C@H]5C[C@@H](Nc6ccc7c(c6)C(=O)N(C6CCC(=O)NC6=O)C7=O)C5)cc4)cc3)n2)C1` (stereo partly drawn) [Example 401]: 11 to 100 nM; `CN1CCN(c2ncc3c(n2)CN(c2ccc(C(C)(C)c4ccc(O[C@H]5C[C@H](Nc6ccc7c(c6)C(=O)N(C6CCC(=O)NC6=O)C7=O)C5)cc4)cc2)CC3)CC1` (stereo partly drawn) [Example 192, 2-(2,6-dioxopiperidin-3-yl)-5-((1r,3r)-3-(4-(2-(2-(4-methylpiperazin-1-yl)-5,8-dihydropyrido[3,4-d]pyrimidin-7(6H)-phenyl)propan-2-ylphenoxy)cyclobutyl)amino)isoindolin-1,3-dione]: 11 to 100 nM.
Still for that read-out and setting: under `CC(=O)c1nccc(COc2ccc(C(C)(C)c3ccc(OC[C@@H]4CCCN4c4ccc5c(c4)C(=O)N(C4CCC(=O)NC4=O)C5=O)cc3)cc2)n1` (stereo partly drawn) [Example 145, 5-((S)-2-((4-(2-(4-((2-acetylpyrimidin-4-yl)methoxy)phenyl)propan-2-yl)phenoxy)methyl)pyrrolidin-1-yl)-2-(2,6-dioxopiperidin-3-yl)isoindolin-1,3-dione] stands 101 to 1000 nM.
`CC(O)c1cnc(Oc2ccc(C(C)(C)c3ccc(O[C@H]4C[C@@H](Nc5ccc6c(c5)C(=O)N(C5CCC(=O)NC5=O)C6=O)C4)cc3)cc2)cn1` (stereo partly drawn) [Example 129]: the DC50 was 11 to 100 nM.
`CC(C)(c1ccc(OCCCCCCCCOCCCCNc2ccc3c(c2)C(=O)N(C2CCC(=O)NC2=O)C3=O)cc1)c1ccc(OCc2nc(C(N)=O)no2)cc1` (stereo not drawn) [Example 138] gave a DC50 of 1000 to 5000 nM.
On to `CC(C)(c1ccc(OCc2ccnc(N3CC4(CNC4)C3)n2)cc1)c1ccc(O[C@H]2C[C@@H](Nc3ccc4c(c3)C(=O)N(C3CCC(=O)NC3=O)C4=O)C2)cc1` (stereo partly drawn) [Example 86], for which the DC50 lay within 11 to 100 nM.

The assay is the same for the next values; noted with them: AR-v7 degradation in 22RV1 cells, 48 h, numeric values.
Regarding `CC(C)(c1ccc(OCCCCCCCCOCCCCNc2ccc3c(c2)C(=O)N(C2CCC(=O)NC2=O)C3=O)cc1)c1ccc(OCc2nccc(NS(C)(=O)=O)n2)cc1` (stereo not drawn) [Example 32, N-(2-((4-(2-(4-((8-(4-((2-(2,6-dioxopiperidin-3-yl)-1,3-dioxoisoindolin-5-yl)amino)butoxy)octyl)oxy)phenyl)propan-2-yl)phenoxy)methyl)pyrimidin-4-yl)methanesulfonamide], the half-maximal degradation concentration (DC50) was > 10000 nM.
Still for that read-out and setting: next, `CC(C)(c1ccc(OCCCCCCCCN2CC3(C2)CN(c2ccc4c(c2)C(=O)N(C2CCC(=O)NC2=O)C4=O)C3)cc1)c1ccc(OCc2ccnc(NS(C)(=O)=O)n2)cc1` (stereo not drawn) [Example 30, N-(4-((4-(2-(4-((8-(6-(2-(2,6-dioxopiperidin-3-yl)-1,3-dioxoisoindolin-5-yl)-2,6-diazaspiro[3.3]heptan-2-yl)octyl)oxy)phenyl)propan-2-yl)phenoxy)methyl)pyrimidin-2-yl)methanesulfonamide]: > 10000 nM.
`CN(c1nccc(COc2ccc(C(C)(C)c3ccc(OCCCCCCCCOCCCCNc4ccc5c(c4)C(=O)N(C4CCC(=O)NC4=O)C5=O)cc3)cc2)n1)S(C)(=O)=O` (stereo not drawn) [Example 25, N-(4-((4-(2-(4-((8-(4-((2-(2,6-dioxopiperidin-3-yl)-1,3-dioxoisoindolin-5-yl)amino)butoxy)octyl)oxy)phenyl)propan-2-yl)phenoxy)methyl)pyrimidin-2-yl)-N-methyl methanesulfonamide]: the DC50 is > 10000 nM.

For orientation: DC50 means the midpoint of the concentration-degradation curve. High values mean a less potent degrader, low ones a more potent degrader.
